Results as given in patent US4950669A, “Methods and compositions for promoting growth of animals” (priority 1987, dated 1990).

Assays:
[1] = six-week swine feeding study, weanling barrows (Example XI); assay type: in vivo; conditions: six weeks; for daily feed (rel.) / Avg. daily gain (rel.): control = 100; for Avg. daily gain / Avg. daily gain (rel.): swine feed
Description: N-morpholinyl-β-benzoyl-propionamide was admixed with swine feed at 20 ppm and at 60 ppm. A six-week feeding study was conducted using weanling barrows. Pigs averaging 8.80 kg initially (4-5 weeks of age) were housed four pigs per pen. Test diets were fed ad libitum throughout the six-week study. Average final weight for all pigs was 27.33 kg.

[2] = rabbit, in vivo, ip, 100 mg/kg
[3] = rat, in vivo, ip, 50 mg/kg
Description: Per os, in the mouse still, the LD50 is above 2000 mg/kg. In the rat, after i.p. treatment with 50 mg/kg there was, within 3 hours from administration, a maximum lowering of the body temperature of 0.6° in respect to the controls treated with the only suspending medium.

[4] = pig growth study, intramuscular injection (Example X); assay type: in vivo; conditions: pigs, 1 mg/kg i.m. every seven days
Description: N-morpholinyl-β-benzoylpropionamide (NMBP) was formulated as an injectable product at a concentration of 2% in polyethylene glycol. The formulation was administered to pigs by intramuscular injection at a dosage of 1 mg/kg, once every seven days. Pigs averaged 52.66 kg at initiation and were terminated at 90.8 kg. Control animals received no injections.

[5] = hypotensive effect in the awake rabbit; assay type: in vivo; conditions: same dosage (100 mg/kg) i.p.
[6] = 44-day floor pen study in chickens (Example XIV); assay type: in vivo
Description: A 44-day floor pen study was conducted in which n-morpholinyl-β-benzoyl-propionamide was administered in chicken feed at concentrations of 1 ppm, 2.5 ppm, 5 ppm, 10 ppm, 20 ppm, 40 ppm and 60 ppm. One group of controls received no medication in its feed, while a second control group received Bacitracin MD in its feed at 30 g/ton. Birds were fed ad libitum. There were 5 replications per treatment, 50 birds per replication. Birds were weighed to determine weight gain and feed-to-gain ration after 35 days and 44 days.

[7] = battery study in chickens (Example XVI); assay type: in vivo; conditions: for Mortality: unmedicated 1.1
Description: A battery study was conducted in which N-morpholinyl-β-benzoyl-propionamide was administered to chickens in their feed at levels at 2.5 ppm and 5.0 ppm. The control group was unmedicated. Each medicated treatment had 10 replications of 8 birds per replication, with non-medicated controls having 20 replications of 8 birds per replication. Birds were weighed to determine weight gain and feed-to-gain ratio on days 7, 14 and 21.

[8] = organ weight variations in the rat after per os treatment; assay type: in vivo; conditions: 300 mg/kg per os

O=C(CCC(=O)N1CCOCC1)c1ccccc1 [NMBP, N-morpholinyl-β-benzoyl-propionamide]
daily feed ([1]; 20 ppm): 1.022 kg
daily feed (rel.) ([1]; 20 ppm): 107
daily feed ([1]; 60 ppm): 0.96 kg
daily feed (rel.) ([1]; 60 ppm): 101
Avg. daily gain ([1]; 20 ppm): 0.45 kg
Avg. daily gain (rel.) ([1]; 20 ppm): 108
Avg. daily gain ([1]; 60 ppm): 0.42 kg
Avg. daily gain (rel.) ([1]; 60 ppm): 100
electrocardiographic variations compared to the controls [2]: no electrocardiographic variations
maximum lowering of the body temperature in respect to the controls [3]: 0.6 °
improvement of average daily gain as compared with controls [4]: about 10%
improvement of feed-to-gain ratio as compared with controls [4]: about 4%
average daily gain (ADG) ([4]; control 0.867): 0.958 kg
average daily feed consumption (ADF) ([4]; control 2.76): 2.96 kg
feed-to-gain ratio (F/G) ([4]; control 3.18): 3.03
hypotensive effect [5]: not hypotensive
F/G ([6]; feed 1 ppm, Day 35): 1.60
Weight Gain ([6]; feed 1 ppm, Day 35): 1379 g
F/G ([6]; feed 1 ppm, Day 44): 1.72
Weight Gain ([6]; feed 1 ppm, Day 44): 1917 g
F/G ([6]; feed 2.5 ppm, Day 35): 1.55
Weight Gain ([6]; feed 2.5 ppm, Day 35): 1431 g
F/G ([6]; feed 2.5 ppm, Day 44): 1.69
Weight Gain ([6]; feed 2.5 ppm, Day 44): 1961 g
F/G ([6]; feed 5 ppm, Day 35): 1.61
Weight Gain ([6]; feed 5 ppm, Day 35): 1381 g
F/G ([6]; feed 5 ppm, Day 44): 1.72
Weight Gain ([6]; feed 5 ppm, Day 44): 1929 g
F/G ([6]; feed 10 ppm, Day 35): 1.60
Weight Gain ([6]; feed 10 ppm, Day 35): 1356 g
F/G ([6]; feed 10 ppm, Day 44): 1.74
Weight Gain ([6]; feed 10 ppm, Day 44): 1883 g
F/G ([6]; feed 20 ppm, Day 35): 1.61
Weight Gain ([6]; feed 20 ppm, Day 35): 1364 g
F/G ([6]; feed 20 ppm, Day 44): 1.72
Weight Gain ([6]; feed 20 ppm, Day 44): 1901 g
F/G ([6]; feed 40 ppm, Day 35): 1.63
Weight Gain ([6]; feed 40 ppm, Day 35): 1334 g
F/G ([6]; feed 40 ppm, Day 44): 1.72
Weight Gain ([6]; feed 40 ppm, Day 44): 1898 g
F/G ([6]; feed 60 ppm, Day 35): 1.57
Weight Gain ([6]; feed 60 ppm, Day 35): 1334 g
F/G ([6]; feed 60 ppm, Day 44): 1.72
Weight Gain ([6]; feed 60 ppm, Day 44): 1875 g
Feed Conversion ([7]; feed 2.5 ppm, D + 7): 1.67
Weight Gain ([7]; feed 2.5 ppm, D + 7): 256 g
Feed Conversion ([7]; feed 2.5 ppm, D + 14): 1.98
Weight Gain ([7]; feed 2.5 ppm, D + 14): 526 g
Feed Conversion ([7]; feed 2.5 ppm, D + 21): 1.70
Weight Gain ([7]; feed 2.5 ppm, D + 21): 1075 g
Mortality ([7]; feed 2.5 ppm): 1.4
Feed Conversion ([7]; feed 5.0 ppm, D + 7): 1.65
Weight Gain ([7]; feed 5.0 ppm, D + 7): 262 g
Feed Conversion ([7]; feed 5.0 ppm, D + 14): 2.02
Weight Gain ([7]; feed 5.0 ppm, D + 14): 523 g
Feed Conversion ([7]; feed 5.0 ppm, D + 21): 1.71
Weight Gain ([7]; feed 5.0 ppm, D + 21): 1027 g
Mortality ([7]; feed 5.0 ppm): .8
organ weight variation, suprarenal gland ([8]; controls +0.011): +0.011%
organ weight variation, heart ([8]; controls +0.257): +0.304%
organ weight variation, lung ([8]; controls +0.598): +0.675%
organ weight variation, kidney ([8]; controls +0.65): +0.71%
organ weight variation, liver ([8]; controls +3.22): +3.63%
